Laboratory results published in patent US7122359B2, “Active-site engineering of nucleotidylyltransferases and general enzymatic methods for the synthesis of natural and “unnatural” UDP- and TDP-nucleotide sugars” (priority 2000, dated 2006).
Entries after “also recorded” stand apart in the source; their conditions may differ.

Key:
[1] = target: T1, Salmonella enterica LT2 α-D-glucopyranosyl phosphate thymidylyltransferase (Ep) (Salmonella typhimurium, UniProt P26393); assay: Ep-catalyzed conversion of aminodeoxy/acetamidodeoxy sugar phosphates with inorganic pyrophosphatase, HPLC (FIG. 4); type: biochemical; details: 2.5 mM NTP, 5.0 mM sugar phosphate, 10 U inorganic pyrophosphatase, 30 min, 37° C.
T1 construct: made in house; host or cells: E. coli (E. coli-prfbA-C)
Description: To evaluate the synthetic utility of thymidylyl-transferase, purified Ep, α-D-glucopyranosyl phosphate, Mg^+2, NTP and inorganic pyrophosphatase were incubated at 37° C. for 30 min and the extent of product formation determined by HPLC. The inorganic pyrophosphatase was included to drive the reaction forward. A reaction containing 2.5 mM NTP, 5.0 mM sugar phosphate, 5.5 mM MgCl2 and 10 U inorganic pyrophosphatase in a total volume of 50 μL 50 mM potassium phosphate buffer, pH 7.5 at 37° C. was initiated by the addition of 3.52 U Ep (1 U=the amount of protein needed to produce […] TDP-D-glucose min^−1). The reaction was incubated with slow agitation for 30 min at 37° C., quenched with MeOH (50 μL), centrifuged (5 min, 14,000×g) and the supernatant was stored at −20° C. until analysis by HPLC. Samples (30 μL) were resolved on a Sphereclone 5u SAX column (150×4.6 mm) fitted with a SecurityGuard ™ cartridge (Phenomenex; Torrance, Calif.) using a linear gradient (50–200 mM potassium phosphate buffer, pH 5.0, 1.5 mL min^−1, A275 nm).
The results of these assays are illustrated in FIG. 4. For each assay, confirmation of product formation was based upon high resolution mass spectroscopy of HPLC-isolated products and, also in some cases, HPLC co-elution with commercially available standards.
A reaction containing 2.5 mM NTP, 5.0 mM sugar phosphate, 5.5 mM MgCl2 and 10 U inorganic pyrophosphatase in a total volume of 50 μL 50 mM potassium phosphate buffer, pH 7.5 at 37° C. was initiated by the addition of 3.52 U Ep (1 U=the amount of protein needed to produce 1 μmol TDP-α-D-glucose min^−1) The reaction was incubated with slow agitation for 30 min at 37° C., quenched with MeOH (50 μL), centrifuged (5 min, 14,000×g) and the supernatant was stored at −20° C. until analysis by HPLC. Samples (30 μL) were resolved on a Sphereclone 5u SAX column (250×4.6 mm) fitted with a guard column (30×4.6 mm) using a linear gradient (50–200 mM potassium phosphate buffer, pH 5.0, 1.5 mL min^−1, A275 nm).

[2] = target: T1, Salmonella enterica LT2 α-D-glucopyranosyl phosphate thymidylyltransferase (Ep); assay: Ep-catalyzed conversion of α-D-hexopyranosyl phosphates and NTP to NDP-sugars, HPLC (FIG. 2); type: biochemical; details: for activity as Ep substrate with TTP: 5 mM NTP, 10 mM sugar phosphate, 30 min, 37° C.; for utilization as NTP substrate by Ep: NTP substrate specificity
Excerpt: FIG. 2. E^p-Catalyzed Conversion of Substrates wherein superscript indicators (a)–(h) are as follows: (a) Percent conversion=[Ap/(AP+AT)]×100, where AP is the NDP-sugar product peak integration and AT represents the NTP peak integration. HRMS for all observed products reported in the supporting information. (b) Standard retention times: TDP, […]; TTP, 7.2 mm; UDP, 4.0 mm; UTP, 6.1 mm. (c) Commercially available. (d) Coelutes with commercially available standard. […] (f) Adjusted for the 2:1 α/β-28. (g) In contrast to previously published studies (See Lindquist, L; Kaiser, R.; Reeves, P. R.; Lindberg, A. A., Eur J. Biochem, 1993, 211, 763–770). (h) No products observed.
To evaluate the synthetic utility of purified thymidylyltransferase, Ep, α-D-hexopyranosyl phosphate, Mg^+2 and NTP were incubated at about 37° C. for about 30 min and the extent of product formation determined by HPLC. The results of these assays are illustrated in FIG. 2. Confirmation of product formation was based upon HPLC co-elution with commercially available standards and/or HPLC isolation and high resolution mass spectroscopy of the product. […] A reaction containing 5 mM NTP, 10 mM sugar phosphate and 5.5 mM MgCl2 in a total volume of 50 μL 50 mM potassium phosphate buffer, pH 7.5 at 37° C. was initiated by the addition of 3.52 U Ep (1 U=the amount of protein needed to produce 1 μmol TDP-D-glucose min^−1). The reaction was incubated with slow agitation for 30 min at 37° C., quenched with MeOH (50 μL), centrifuged (5 min, 14,000×g) and the supernatant was stored at −20° C. until analysis by HPLC. Samples (20 μL) were resolved on a Sphereclone 5 u SAX column (250×4.6 mm) fitted with a guard column (30×4.6 mm) using a linear gradient (20–60 mM potassium phosphate buffer, pH 5.0, 1.5 mL min^−1, A275 nm).

wild-type Ep = target: T2, wild-type Ep (Salmonella typhimurium, UniProt P26393); assay: Conversion of sugar phosphates by wild-type enzyme (FIG. 11); type: biochemical, Salmonella enterica LT2
T2 construct: made in house; host or cells: E. coli (E. coli-prfbA-C)
Description: FIG. 11. Percent conversion of sugar phosphates according to the present invention by wild-type and mutant enzymes. The alterations from native substrate (Glc-1-P,1) are highlighted in red. For the mutant pool, mutants Asp41Asn, Glu62Asp, Thr201A and Trp224His were pooled, concentrated and an aliquote constituting 60 μg of each mutant (corresponding to 3.5U Ep) was utilized for the assay.
Percent conversion was determined as described in Jiang, J., Biggins, J. B. & Thorson, J. S. A General Enzymatic Method for the Synthesis of Natural and “Unnatural” UDP- and TDP-Nucleotide Sugars. J. Am. Chem. Soc. 122, 6803–6804 (2000).
Assays for product formation and steady state kinetics were accomplished using conditions similar to those described. in Jiang, J., Biggins, J. B. & Thorson, J. S. A General Enzymatic Method for the Synthesis of Natural and “Unnatural” UDP- and TDP-Nucleotide Sugars. J. Am. Chem. Soc. 122, 6803-6804 (2000). For the mutant pool assays, an aliquot which contained an eqimolar ratio of each mutant (60 μg) was utilized.

Molecule	product formation with dTTP [1]	activity as Ep substrate with TTP [2]	other results
CC(=O)N[C@H]1[C@H](O)[C@@H](O)[C@@H](OP(=O)([O-])[O-])O[C@@H]1CO.[Na+].[Na+] [compound 92, Disodium-(4-acetamido-4-deoxy-α-D-glucopyranosyl) Phosphate]	less activity		
O=P([O-])([O-])O[C@H]1O[C@H](CO)C[C@H](O)[C@H]1O.[Na+].[Na+] [compound 20, Disodium 4-deoxy-α-D-glucopyranosyl Phosphate]		prefers	
Nc1ccn([C@@H]2O[C@H](COP(=O)(O)OP(=O)(O)OP(=O)(O)O)[C@@H](O)[C@H]2O)c(=O)n1 [CTP, reference compound]			utilization as NTP substrate by Ep [2]: not and not accepted
O=P([O-])([O-])O[C@H]1O[C@H](CO)[C@H](O)[C@@H](O)[C@@H]1O.[Na+].[Na+] [compound 51, Disodium α-D-idopyranosyl Phosphate]		less activity	
O=P([O-])([O-])O[C@H]1O[C@H](CO)[C@@H](O)C[C@H]1O.[Na+].[Na+] [compound 28, Disodium 3-deoxy-α-D-glucopyranosyl Phosphate]		prefers	
CC(=O)N[C@@H]1[C@@H](O)[C@@H](OP(=O)([O-])[O-])O[C@H](CO)[C@H]1O.[Na+].[Na+] [compound 97, Disodium-(3-acetamido-3-deoxy-α-D-glucopyranosyl) Phosphate]	well-tolerated		product formation with UTP [1]: adverse UTP-dependent effect upon yields
N[C@H]1[C@H](O)[C@@H](O)[C@@H](OP(=O)([O-])[O-])O[C@@H]1CO.[Na+].[Na+] [compound 91, Disodium-(4-amino-4-deoxy-α-D-glucopyranosyl) Phosphate]	little or no effect		
O=P([O-])([O-])O[C@@H]1C[C@@H](O)[C@H](O)[C@@H](CO)O1.[Na+].[Na+] [compound 43, Disodium 2-deoxy-α-D-glucopyranosyl Phosphate]		prefers	Product hydrolysis observed, TDP ([2]; FIG. 2 footnote (e), TTP reaction): 7.6%; Product hydrolysis observed, UDP ([2]; FIG. 2 footnote (e), UTP reaction): 10.2%
O=P([O-])([O-])O[C@H]1O[C@H](CO)[C@H](O)[C@H](O)[C@@H]1O.[Na+].[Na+] [compound 55, Disodium α-D-talopyranosyl Phosphate]		less activity	
O=P([O-])([O-])O[C@H]1O[C@H](CO)[C@@H](O)[C@@H](O)[C@@H]1O.[Na+].[Na+] [compound 47, Disodium α-D-altropyranosyl Phosphate]		less activity	
N[C@H]1[C@@H](OP(=O)(O)O)O[C@H](CO)[C@@H](O)[C@@H]1O [compound 107, 2-amino-2-deoxy-α-D-glucopyranosyl phosphate, reference compound]	little or no effect		
C[C@H]1O[C@H](OP(=O)([O-])[O-])[C@H](O)[C@@H](O)[C@@H]1O.[Na+].[Na+] [compound 12, Disodium 6-deoxy-α-D-glucopyranosyl Phosphate]		prefers	
O=P(O)(O)O[C@H]1O[C@H](CO)[C@@H](O)[C@H](O)[C@@H]1O [compound 56, α-D-mannopyranosyl phosphate, reference compound]		prefers	
NC[C@H]1O[C@H](OP(=O)([O-])[O-])[C@H](O)[C@@H](O)[C@@H]1O.[Na+].[Na+] [compound 85, Disodium-(6-amino-6-deoxy-α-D-glucopyranosyl) Phosphate]	little or no effect		product formation with UTP ([1]; Phosphate): exception; also recorded: adverse UTP-dependent effect upon yields
N[C@@H]1[C@@H](O)[C@@H](OP(=O)([O-])[O-])O[C@H](CO)[C@H]1O.[Na+].[Na+] [compound 96, Disodium (3-amino-3-deoxy-α-D-glucopyranosyl) Phosphate]	little or no effect		
C[C@H]1O[C@H](OP(=O)([O-])[O-])[C@H](O)[C@@H](O)[C@@H]1N.[Na+].[Na+] [compound 102, Disodium-(4-amino-4,6-dideoxy-α-D-glucopyranosyl) Phosphate]	does not effect		product formation with UTP [1]: greatly diminishes
O=c1ccn([C@@H]2O[C@H](COP(=O)(O)OP(=O)(O)OP(=O)(O)O)[C@@H](O)[C@H]2O)c(=O)[nH]1 [UTP, reference compound]			utilization as NTP substrate by Ep [2]: utilizes
O=P(O)(O)O[C@H]1O[C@H](CO)[C@H](O)[C@H](O)[C@H]1O [compound 57, α-D-galactopyranosyl phosphate, reference compound]		prefers	
O=P([O-])([O-])O[C@H]1O[C@H](CO)[C@@H](O)[C@@H](O)[C@H]1O.[Na+].[Na+] [compound 38, Disodium α-D-allopyranosyl Phosphate]		less activity	acceptance / conversion by wild-type Ep (wild-type Ep): poor conversion
Ethyl 2,3,4,6-tetra-O-benzyl-1-thio-β-D-gulopyranoside [compound 31]		less activity	
